Converted amounts (≈) assume the structure as drawn.

Assay type in all cases: cell-based
The test system of assay [1] is Streptococcus pneumoniae (Chester, ATCC49619). The experiment in a line: broth microdilution MIC assay, Streptococcus pneumoniae. The note with it: MIC100 class score, 24 h. A general note: Broth dilution looks for growth in wells or tubes with falling amounts of substance.
The test system of assay [2] is Staphylococcus aureus MSSA (Newman). Nature of the assay: broth microdilution MIC assay, Staphylococcus aureus MSSA (Newman). The settings on record: Staphylococcus aureus, 24 h, read-out: Antibacterial activity Staphylococcus aureus (MSSA).
The test system of assay [3] is Staphylococcus aureus MRSA (COL). The experiment in a line: broth microdilution MIC assay, Staphylococcus aureus MRSA (COL). The settings on record: 24 h; for Antibacterial activity Staphylococcus aureus (MRSA): MIC100 class score, broth microdilution; for MIC: Staphylococcus aureus, MRSA, read-out: Antibacterial activity Staphylococcus aureus (MRSA).

As for `Cc1[nH]c(-c2ccc(-c3ccc(F)cc3)s2)nc1-c1ccccc1` [Compound 7], the “Antibacterial activity Streptococcus pneumoniae” value in assay [1] is on record as 3 (MIC100 of 2-5 μg/ml).

Regarding `Cc1[nH]c(-c2csc(-c3ccc(F)cc3)n2)nc1-c1ccccc1` [Compound 11], the “Antibacterial activity Streptococcus pneumoniae” value in assay [1] is listed as 3 (MIC100 of 2-5 μg/ml).

Turning to `Cc1[nH]c(-c2ccc(-c3cccc(Cl)c3)s2)nc1-c1ccccc1` [Compound 12], in assay [1], the “Antibacterial activity Streptococcus pneumoniae” value is on record as 3 (MIC100 of 2-5 μg/ml).

On to `Cc1[nH]c(-c2ccc(-c3cccc(Br)c3)s2)nc1-c1ccccc1` [Compound 13], for which, in assay [1], the “Antibacterial activity Streptococcus pneumoniae” value was 2 (MIC100 of 6-10 μg/ml).

As to `Cc1[nH]c(-c2csc(-c3cccc(Br)c3)n2)nc1-c1ccccc1` [Compound 14], the “Antibacterial activity Streptococcus pneumoniae” value in assay [1] is 3 (MIC100 of 2-5 μg/ml).

`Cc1ccc(-c2ccc(-c3nc(-c4ccccc4)c(C)[nH]3)s2)cc1` [Compound 54]: the “Antibacterial activity Streptococcus pneumoniae” value in assay [1] is on record as 2 (MIC100 of 6-10 μg/ml).

For the compound `Cc1ccc(-c2ncc(-c3nc(-c4ccccc4)c(C)[nH]3)s2)cc1` [Compound 55], the “Antibacterial activity Streptococcus pneumoniae” value in assay [1] was 3 (MIC100 of 2-5 μg/ml).

Regarding `Cc1ccc(-c2nc(-c3nc(-c4ccccc4)c(C)[nH]3)cs2)cc1` [Compound 56], in assay [1], the “Antibacterial activity Streptococcus pneumoniae” value is listed as 3 (MIC100 of 2-5 μg/ml).

As to `Cc1ccc(-c2nc(-c3nc(-c4ccccc4)c(C)[nH]3)co2)cc1` [Compound 57], the “Antibacterial activity Streptococcus pneumoniae” value in assay [1] is recorded as 3 (MIC100 of 2-5 μg/ml).

Turning to `Cc1[nH]c(-c2ccc(-c3ccccc3)s2)nc1-c1ccccc1` [Compound 74], the “Antibacterial activity Streptococcus pneumoniae” value in assay [1] is reported as 3 (MIC100 of 2-5 μg/ml).

Take `FC(F)(F)c1ccccc1-c1ccc(-c2ncc(-c3ccccc3)[nH]2)o1` [Compound 75]: the MIC in assay [2] lay within 11 to 201 µg/mL (≈ 31 to 567 µM).

Turning to `CCCc1[nH]c(-c2ccc(-c3ccccc3Cl)s2)nc1C` [Compound 82], the “Antibacterial activity Staphylococcus aureus (MRSA)” value in assay [3] is 3 (MIC100 of 3-10 μg/ml).

For `Cc1nc(-c2ccc(-c3ccccc3Br)o2)[nH]c1C` [Compound 84], in assay [3], the MIC is 11 to 201 µg/mL (≈ 34.7 to 634 µM).

With `Cc1nc(-c2ccc(-c3ccccc3OC(F)(F)F)o2)[nH]c1C` [Compound 85], the MIC in assay [3] fell in the range of 1 to 3 µg/mL (≈ 3.1 to 9.31 µM).

Take `CCCc1nc(-c2ccc(-c3ccccc3N(C)C)o2)[nH]c1C` [Compound 98]: the “Antibacterial activity Staphylococcus aureus (MRSA)” value in assay [3] is recorded as 3 (MIC100 of 3-10 μg/ml).

On to `CCCc1[nH]c(-c2ccc(-c3ccc(Cl)cc3Cl)o2)nc1C` [Compound 109], for which the “Antibacterial activity Staphylococcus aureus (MRSA)” value in assay [3] was 2 (MIC100 of 11-201 μg/ml).

`CCCc1nc(-c2coc(-c3ccccc3C(F)(F)F)c2)[nH]c1C` [Compound 112]: the “Antibacterial activity Staphylococcus aureus (MRSA)” value in assay [3] is on record as 3 (MIC100 of 3-10 μg/ml).

For the compound `CCCc1nc(-c2csc(-c3ccccc3C(F)(F)F)c2)[nH]c1C` [Compound 113], the “Antibacterial activity Staphylococcus aureus (MRSA)” value in assay [3] was 3 (MIC100 of 3-10 μg/ml).

As to `CCCc1nc(-c2sc(-c3ccccc3C(F)(F)F)c3c2OCCO3)[nH]c1C` [Compound 114], in assay [3], the “Antibacterial activity Staphylococcus aureus (MRSA)” value is on record as 3 (MIC100 of 3-10 μg/ml).

For the compound `Cc1[nH]c(-c2ccc(-c3cccc(F)c3)s2)nc1-c1ccccc1` [Compound 117], the MIC in assay [2] was 20 to 50 µg/mL (≈ 59.8 to 150 µM).

In the case of `Cc1nc(-c2ccc(-c3cccc4[nH]ccc34)o2)[nH]c1-c1ccccc1` [Compound 138], the MIC in assay [3] was in the range of 11 to 201 µg/mL (≈ 32.4 to 592 µM).

As for `Cc1nc(-c2ccc(-c3ccc(O)cc3C(F)(F)F)o2)[nH]c1-c1ccccc1` [Compound 139], the MIC in assay [2] and in assay [3] was 1 to 3 µg/mL (≈ 2.6 to 7.81 µM) in each case.

With `Cc1nc(-c2ccc(-c3cc4ccccc4o3)o2)[nH]c1-c1ccccc1` [Compound 140], the MIC in assay [3] was 11 to 201 µg/mL (≈ 32.3 to 591 µM).

Consider `Cc1nc(-c2ccc(-c3ccc(N4CCN(C)CC4)cc3)o2)[nH]c1-c1ccccc1` [Compound 141], for which the MIC in assay [3] lay within 20 to 50 µg/mL (≈ 50.2 to 125 µM).

Regarding `Cc1nc(-c2ccc(-c3cccc(C(F)(F)F)c3)o2)[nH]c1-c1ccccc1` [Compound 142], the MIC in assay [2] and in assay [3] was 1 to 3 µg/mL (≈ 2.71 to 8.14 µM) each time.

For the compound `Cc1nc(-c2ccc(-c3ccc4[nH]ccc4c3)o2)[nH]c1-c1ccccc1` [Compound 144], the MIC in assay [2] and in assay [3] was 3 to 10 µg/mL (≈ 8.84 to 29.5 µM) each time.

`Cc1nc(-c2ccc(-c3cccc(O)c3)o2)[nH]c1-c1ccccc1` [Compound 145]: the figures for the MIC in assay [2] and in assay [3] were 11 to 201 µg/mL (≈ 34.8 to 635 µM) and 20 to 50 µg/mL (≈ 63.2 to 158 µM), respectively.

In the case of `Cc1nc(-c2ccc(-c3cccc(F)c3)o2)[nH]c1-c1ccccc1` [Compound 146], the MIC in assay [2] and in assay [3] was 3 to 10 µg/mL (≈ 9.42 to 31.4 µM) each time.

Turning to `Cc1nc(-c2ccc(-c3ccc(F)cc3F)o2)[nH]c1-c1ccccc1` [Compound 147], the MIC in assay [2] and in assay [3] was 1 to 3 µg/mL (≈ 2.97 to 8.92 µM) each time.

As for `Cc1nc(-c2ccc(-c3ccc(F)cc3)o2)[nH]c1-c1ccccc1` [Compound 148], the MIC in assay [2] and in assay [3] was 3 to 10 µg/mL (≈ 9.42 to 31.4 µM) each time.

For the compound `Cc1nc(-c2ccc(-c3ccccc3O)o2)[nH]c1-c1ccccc1` [Compound 149], the figures for the MIC in assay [2] and in assay [3] were 11 to 201 µg/mL (≈ 34.8 to 635 µM) and 20 to 50 µg/mL (≈ 63.2 to 158 µM), respectively.

For the compound `Cc1nc(-c2ccc(-c3ccc(O)cc3)o2)[nH]c1-c1ccccc1` [Compound 150], the MIC in assay [2] and in assay [3] was 11 to 201 µg/mL (≈ 34.8 to 635 µM) in each case.

Turning to `Cc1nc(-c2ccc(-c3ccc4cc[nH]c4c3)o2)[nH]c1-c1ccccc1` [Compound 152], the MIC in assay [2] and in assay [3] was 3 to 10 µg/mL (≈ 8.84 to 29.5 µM) in each case.

With `Cc1nc(-c2ccc(-c3ccc(F)c(F)c3)o2)[nH]c1-c1ccccc1` [Compound 153], the MIC in assay [2] and in assay [3] was 3 to 10 µg/mL (≈ 8.92 to 29.7 µM) each time.

In the case of `Cc1nc(-c2ccc(-c3ccc4cc(O)ccc4c3)o2)[nH]c1-c1ccccc1` [Compound 154], the MIC in assay [2] and in assay [3] was 11 to 201 µg/mL (≈ 30 to 549 µM) each time.

On to `Cc1nc(-c2ccc(-c3ccc(O)c(C(F)(F)F)c3)o2)[nH]c1-c1ccccc1` [Compound 155], for which the values for the MIC in assay [2] and in assay [3] were 3 to 10 µg/mL (≈ 7.81 to 26 µM) and 11 to 201 µg/mL (≈ 28.6 to 523 µM), respectively.

Take `Cc1nc(-c2ccc(-c3ccc(O)c(Cl)c3)o2)[nH]c1-c1ccccc1` [Compound 157]: the MIC in assay [2] lay in the range of 3 to 10 µg/mL (≈ 8.55 to 28.5 µM); in assay [3], 11 to 201 µg/mL (≈ 31.4 to 573 µM).

In the case of `Cc1nc(-c2ccc(-c3ccc(O)cc3Cl)o2)[nH]c1-c1ccccc1` [Compound 158], the MIC in assay [2] and in assay [3] was 1 to 3 µg/mL (≈ 2.85 to 8.55 µM) in each case.

As for `Cc1nc(-c2ccc(-c3ccc4occc4c3)o2)[nH]c1-c1ccccc1` [Compound 159], the MIC lay within 3 to 10 µg/mL (≈ 8.81 to 29.4 µM) in assay [2] and 20 to 50 µg/mL (≈ 58.8 to 147 µM) in assay [3].

Take `Cc1nc(-c2ccc(-c3cc4ccccc4[nH]3)o2)[nH]c1-c1ccccc1` [Compound 160]: the MIC lay in the range of 3 to 10 µg/mL (≈ 8.84 to 29.5 µM) in assay [2] and 11 to 201 µg/mL (≈ 32.4 to 592 µM) in assay [3].

Turning to `Cc1nc(-c2ccc(-c3cccc4cc[nH]c34)o2)[nH]c1-c1ccccc1` [Compound 161], the MIC in assay [2] fell in the range of 3 to 10 µg/mL (≈ 8.84 to 29.5 µM); in assay [3] it was 1 to 3 µg/mL (≈ 2.95 to 8.84 µM).

In the case of `Cc1[nH]c(-c2ccc(-c3ccccc3F)o2)nc1-c1ccccc1` [Compound 162], the MIC in assay [2] and in assay [3] was 3 to 10 µg/mL (≈ 9.42 to 31.4 µM) each time.

On to `Cc1cc(F)ccc1-c1ccc(-c2nc(-c3ccccc3)c(C)[nH]2)o1` [Compound 164], for which, in assay [2], the MIC lay in the range of 3 to 10 µg/mL (≈ 9.03 to 30.1 µM).

Turning to `Cc1[nH]c(-c2cnn(-c3ccc(F)cc3)c2)nc1-c1ccccc1` [Compound 166], the MIC in assay [2] and in assay [3] was 20 to 50 µg/mL (≈ 62.8 to 157 µM) throughout.

Regarding `Cc1[nH]c(-c2cnn(-c3ccccc3)c2)nc1-c1ccccc1` [Compound 167], in assay [3], the MIC was in the range of 20 to 50 µg/mL (≈ 66.6 to 166 µM).

Take `Cc1nc(-c2ccc(-c3ccc(O)cc3F)o2)[nH]c1-c1ccccc1` [Compound 168]: the MIC in assay [2] and in assay [3] was 3 to 10 µg/mL (≈ 8.97 to 29.9 µM) each time.

(Values after patent US10322110B2, “Imidazole-based antimicrobial agents” (priority 2014, dated 2019).)
